Results on 36 compounds are retold here after PubChem BioAssay AID1508591.

For this data set the following is noted: rat; liver microsomes; pH 7.4; 15.0 min; 1.0 µM. Background: Microsomes from liver hold many membrane-bound enzymes, among them those of drug oxidation.
In general, half-life refers to the time in which the quantity being followed falls by half. A lower half-life goes with rapid decline. For `O=C1CCCC2=C1C(c1ccccc1C(F)(F)F)N=C(Nc1nc3ccccc3o1)N2` (stereo unspecified), the half-life is 10 min.
As for `O=S(=O)(Nc1ccccc1N1CCCCC1)c1ccc(Cl)s1`, the half-life worked out at 2.02 min.
`O=C1CCc2cc(S(=O)(=O)Nc3ccc(F)c(Cl)c3)c(F)cc2N1` had a half-life of 16.8 min.
In turn, `N#Cc1ccc(NS(=O)(=O)c2ccc(NC(=O)Cc3ccc(F)c(Cl)c3)cc2)cc1` came in with a half-life greater than 30 min.
The compound `Cc1ccccc1OCC(O)CO` (stereo unspecified) yielded a half-life greater than 30 min.
Compound `COC(=O)[C@]12CCC(C)(C)C[C@@H]1[C@@H]1C(=O)C=C3[C@@]4(C)C=C(C#N)C(=O)C(C)(C)[C@@H]4CC[C@@]3(C)[C@]1(C)CC2` gave a half-life of 5.97 min.
Take `Cc1onc(-c2ccccc2)c1C(=O)Nc1nnc(COc2ccc(Cl)cc2)s1`: the half-life is greater than 30 min.
`Cc1ccc(S(=O)(=O)NC2CCCCC2)cc1` returned a half-life of 1 min.
The value for `CCOC(=O)c1csc(NC(=O)c2ccncc2NS(=O)(=O)c2ccc(C)cc2)n1` was 1.9 min; that for `O=C(NC1CCCc2c1[nH]c1ccc(Cl)cc21)c1ccncc1` (stereo unspecified) was greater than 30 min.
As to `CCCc1nnc(NC(=O)c2nc(S(=O)(=O)Cc3ccc(C)cc3)ncc2Cl)s1`, the half-life was 5.28 min.
For the compound `O=C(NCC1CCN(Cc2cccc(Cl)c2)CC1)Nc1ccc(F)c(Cl)c1`, the half-life amounted to 22.7 min.
`O=C(Nc1cn[nH]c1-c1nc2ccc(CN3CCOCC3)cc2[nH]1)NC1CC1` displayed a half-life greater than 30 min.
In the case of `CCN1C(=O)c2ccccc2[S@](=O)c2ccc(C(=O)N[C@H](C)c3ccc(Br)cc3)cc21`, the half-life is 7.7 min.
The value for `NC1(c2ccccc2Cl)CCCCC1=O` (stereo unspecified) was 11 min; that for `Cc1nc2ccc(NC(=O)c3cc(S(=O)(=O)N(C)c4ccccc4)ccc3Cl)cc2s1` was 1.55 min.
Under `COc1cc2c(cc1-c1c(C)noc1C)ncc1[nH]c(=O)n([C@H](C)c3ccccn3)c12` stands greater than 30 min; under `CCN(CC)CCNC(=O)C1CCN(c2nn3cc(-c4ccc(F)cc4)nc3s2)CC1`, greater than 30 min.
The value for `NC(=O)C1CCN(c2nc(-c3ccc4ccccc4c3)cs2)CC1` was 2.62 min.
As to `CCOc1ccccc1C(=O)NC1CCN(c2cc(C)cc(C)c2)C1=O` (stereo unspecified), the half-life was determined as 8.98 min.
Compound `O=C(c1ccc2c(c1)ncn2-c1ccc(Cl)cc1)N1CCCCC1` displayed a half-life of 9.8 min.
The value for `CC(=O)c1c(C)oc2ccc(N(C(=O)Oc3ccccc3)S(=O)(=O)c3ccccc3)cc12` was 1.48 min; that for `Fc1cnc(-c2ccccc2C(F)F)nc1NCc1ccc(-c2ccn[nH]2)cc1` was 10 min; that for `O=[S+]([O-])(Nc1nccs1)c1ccc(NCc2ccc(Cl)c(Cl)c2)cc1` was 24 min.
`COC(=O)C1=C(C)NC(=O)CC1C(=O)Nc1ccc(Cl)cc1` (stereo unspecified) displayed a half-life of 21 min.
`Cc1noc(C)c1C(=O)N1CCC2(CCCN(Cc3ccccc3)C2)CC1` showed a half-life of 7.2 min.
For `Fc1ccccc1Nc1nc(-c2ccncc2)nc2ccccc12`, the half-life was 7.9 min.
Compound `O=c1cc(CN2CCCN(c3ccc(C(F)(F)F)cn3)CC2)nc2ccccn12` had a half-life of 8.7 min.
The value for `CC(C)c1ccc(OCc2nc3c(n2Cc2ccccc2)C(=O)N(CC2CC2)CCN3)cc1` was 1.82 min; that for `CCN1C(=O)c2ccccc2[S@](=O)c2ccc(C(=O)NCc3ccc(F)cc3)cc21` was 12 min.
Under `Nc1cc(-c2nc(Nc3ccc(F)c(F)c3)c3ccccc3n2)ccn1` stands 15 min.
In the case of `CCc1cccc(-n2nnc(-c3nsc(NC(=O)c4cccc(OC)c4)n3)c2C)c1`, the half-life came out at 12.8 min.
As to `CCNC(=O)N1CCCN(c2ccc(C(=O)NCCc3ccc(Cl)cc3Cl)cc2NC(=O)c2cccc(Cl)c2)CC1`, the half-life was 0.9 min.
As to `Fc1cccc(Nc2nc(-c3ccncc3)nc3ccccc23)c1F`, the half-life was 11 min.
Take `CNC1(c2ccccc2Cl)CCCCC1=O` (stereo unspecified): the half-life was 4.44 min.
Take `CCCCC(C)/C=C(C)/C=C(\C)C(=O)NC1=CC(O)(/C=C/C=C/C=C/C(=O)NC2=C(O)CCC2=O)C2OC2C1=O` (stereo unspecified): the half-life amounted to 1.83 min.
